Values of other authors in patent publication US20240277756A1 (NACAMED AS, priority 2021, published 2024).

Legend:
[1] = oral
[2] = calculated log P values from Foye's Principles of Medicinal Chemistry, Seventh Edition (2011)

C[C@@H]1[C@H](O)[C@@H](C)/C=C/C=C/C=C/C=C/C=C/C=C/C=C/[C@H](O[C@@H]2O[C@H](C)[C@@H](O)[C@H](N)[C@@H]2O)C[C@@H]2O[C@](O)(C[C@@H](O)C[C@@H](O)[C@H](O)CC[C@@H](O)C[C@@H](O)CC(=O)O[C@H]1C)C[C@H](O)[C@H]2C(=O)O [amphotericin B]
absolute bioavailability (in words) [1]: very low

CCCc1nc(C)c2c(=O)nc(-c3cc(S(=O)(=O)N4CCN(CC)CC4)ccc3OCC)[nH]n12 [valdanafil]
log P [2]: 3.64
